From patent publication US20080187572A1, “Matrix Metalloproteinase Inhibitors of Tgfb-Induced Subcapsular Cataract Formation” (McMaster University, priority 2005, published 2008)
Entries after “also recorded” stand apart in the source; their conditions may differ.

B1: TGFβ: TGFβ2 (R&D Systems), growth factor used to induce subcapsular cataract in cultured rat lenses (protein, UniProt P61812 303-414, looked up)
Transforming growth factor …: ALDAAYCFRNVQDNCCLRPLYIDFKRDLGWKWIHEPKGYNANFCAGACPYLWSSDTQHSRVLSLYNTINPEASASPCCVSQDLEPLTILYYIGKTPKIEQLSNMIVKSCKCS

What was measured:
[1] = system: TGFβ-induced subcapsular cataract formation; test: Subcapsular plaque/opacity formation in cultured rat lenses (photography); type: cell-based; conditions: 6 days
Protocol: The previously established TGFβ-induced rat lens model was utilized for these studies. Briefly, lenses were obtained from adult male Wistar rats and cultured in 3.5 ml of serum free M199 medium supplemented with 50 IU/ml penicillin, 50 μg/ml streptomycin and 2.5 μg/ml fungizone (Amersham Biosciences) overnight. […] Some lenses were co-treated with TGFβ2 and the […], GM6001 (liomastat) (Chemicon International) at concentrations ranging from 10 to 25 μM or the MMP-2-9 inhibitor ((2R)-[(4-Biphenylylsulfonyl)amino]-N-hydroxyl-3-phenylpropionamide) (Chemicon) concentrations of either 10 and 25 μM. The GM6001 negative control (N-t-Butoxycarbonyl-L-leucyl-L-tryptophan Methylamide) (Calbiochem) (25 μM) was also employed. Lenses were then harvested at subsequent time-points of 2, 4 or 6 days and then photographed using a digital camera mounted to a dissecting scope. The lenses were then fixed for histology and immunofluorescence, or used for optical analysis. The conditioned media was also collected from each treatment group for zymography and western blot analysis.
The MMP inhibitor GM6001 was employed in the rat subcapsular cataract model in order to determine whether it could effectively suppress TGFβ-induced subcapsular cataract formation. To carry out these experiments, excised rat lenses were treated with exogenous TGFβ for a period of 6 days. […]

[2] = system: alpha smooth muscle actin (α-SMA); test: Immunofluorescent localization of αSMA in lens cross-sections; type: cell-based, rat; conditions: co-cultured with TGFβ 2 ng/ml, 6 days
Protocol: Lenses were collected from different treatment groups and fixed overnight in 1:99 acetic acid: ethanol solution, dehydrated, embedded in paraffin, and processed for routine histology. For histological analysis, 5 μm sections were stained with hematoxylin and eosin. Immunofluorescence was performed on 5 μm thick paraffin-embedded sections. Sections were incubated with primary antibody specific for alpha smooth muscle actin (α-SMA, 1:100, Sigma) and bound primary antibodies were visualized with a fluorescein-isothiocyanate (FITC) anti-mouse secondary antibody, (1:50, Jackson ImmunoResearch Laboratories). All sections were mounted in Vectasheild mounting medium with 4′,6-Diaminodino-2-Phenylindol (DAPI, Vector Laboratories) to visualize the nuclei.
To carry out these experiments, excised rat lenses were treated with exogenous TGFβ for a period of 6 days. An untreated control lens (A), a lens treated with TGF-β (2 ng/mL) (B), a lens co-cultured with TGFβ (2 ng/mL) and GM6001 (25 μM) (C) and a lens co-cultured with TGF-β and MMPI-2/9 (2 umol/L) (D) are shown following 6 days of culture.

[3] = system: MMPs with gelatinolytic activity (MMP-2, MMP-9); test: Gelatin zymography of lens conditioned media; type: cell-based, rat; conditions: co-treated with TGFβ, 6 day time point, relative to TGFβ treated lenses
Protocol: An equal volume of each concentrate was electrophoresed on 10% SDS-polyacrylamide gels containing either 1 mg/ml gelatin or 2% beta-casein at a final concentration of 0.1% as the substrate. Following electrophoresis the gels were developed as described previously and stained in 0.5% coomassie brilliant blue for 1 hr followed by destaining with 10% iso-propanol. Sites of gelatinase or caseinase activity were detected as clear bands against a background of uniform staining, which was digitally photographed.
To examine the timing and level of induction of MMPs In subcapsular cataract formation zymography was performed on conditioned media of lenses from three different treatment groups (control, TGFβ, TGFβ plus GM6001 (25 μM)) and TGFβ plus MMPI-2/9 at the 6 day time point.

MMP-2 = test: Western blot of conditioned media for MMP-2; type: cell-based, rat; conditions: co-cultured with TGFβ
Protocol: (§1) To confirm the identity of the specific MMPs corresponding to the gelatinolytic bands in the zymograms and quantitate their levels over the 6 day time period, concentrated conditioned media from the treatment groups, control, TGFβ, TGFβ plus GM6001 (25 μM) and TGFβ plus MMPI-2/9, from three treatment times days 2, 4 and […], was subjected to western blot analysis using antibodies specific for both MMP-2 and MMP-9. Equal volumes of sample were electrophoresed on a 10% SDS-polyacrylamide gel. The resolved bands were electro-transferred onto a nitrocellulose membrane (Pall Corporation). Membranes were blocked with 5% skimmed milk powder in Tris-buffered saline (50 mM Tris base, NaCl pH 8.5) and 0.1% Tween-20 and then incubated overnight at 4° C. with a polyclonal antibody generated against MMP-9 (1:500; Chemicon International) or MMP-2 (1:500:Chemicon International) or E-adherin (1:1500; ED Transduction Laboratories).
Following this incubation, membranes were probed with an HRP-conjugated secondary antibody (1:7500;Amersham Biosciences) and ECL detection reagents (Amersham Biosciences). The western blots were scanned by a densitometer and analyzed by image quantification software (ImageJ, NIH, USA). […] Quantitative data were analyzed statistically using a student's t-test and expressed as ± standard deviation. […]

MMP-9 = test: Western blot of conditioned media for MMP-9 with densitometry; type: cell-based, rat; conditions: for MMP-9 protein in conditioned media (western blot, densitometry), FIG. 5B,C: co-treated with TGFβ 2 ng/ml, compared with TGFβ alone
Protocol: Equal volumes of sample were electrophoresed on a 10% SDS-polyacrylamide gel. The resolved bands were electro-transferred onto a nitrocellulose membrane (Pall Corporation). Membranes were blocked with 5% skimmed milk powder in Tris-buffered saline (50 mM Tris base, NaCl pH 8.5) and 0.1% Tween-20 and then incubated overnight at 4° C. with a polyclonal antibody generated against MMP-9 (1:500; Chemicon International) or MMP-2 (1:500:Chemicon International) or E-adherin (1:1500; ED Transduction Laboratories).
Following this incubation, membranes were probed with an HRP-conjugated secondary antibody (1:7500;Amersham Biosciences) and ECL detection reagents (Amersham Biosciences). The western blots were scanned by a densitometer and analyzed by image quantification software (ImageJ, NIH, USA). The relative density versus control ratio (RD/C) was estimated using Graph Pad Prism Program (GraphPad). Quantitative data were analyzed statistically using a student's t-test and expressed as ± standard deviation. A value of p<0.05 was considered significant.
The western blot data for MMP-9 from three separate experiments were analyzed by densitometry and the results are shown in FIG. 5C. Values are expressed as the Relative Density versus control ratio (RD/C)± standard deviation of 3 blots.

E-cadherin fragment = test: E-cadherin shedding, western blot of conditioned media; type: cell-based, rat; conditions: co-cultured with TGFβ, 6 day treatment
Protocol: as §1
To determine whether TGFβ treatment of the rat lens results in an induction of E-cadherin shedding and whether this can be modulated by MMPIs, previously concentrated conditioned media was obtained from the 6 day treatment groups outlined earlier, and subjected to western blot analyses using an antibody specific for extracellular domain of E-cadherin, and used in previous studies to detect the presence of soluble E-cadherin fragments. […]

E-cadherin mRNA = E-cadherin mRNA in lens epithelium by LCM and RT-QPCR; type: cell-based, rat; conditions: 6 day treatment; for E-cadherin mRNA level in lens epithelium versus TGFβ alone, FIG. 6B / E-cadherin mRNA level in lens epithelium versus controls, FIG. 6B: co-treated with TGFβ
Protocol: E-cadherin mRNA expression in the rat lens epithelial region was determined for lenses from different treatment groups, TGF-β, TGF-β plus GM6001 (25 μM), TGF-β plus MMPI-2/9 or control (6 day treatment time), using Real time quantitative PCR, (RT-QPCR). For these experiments, cryostat sections of lenses were subjected to Laser Capture Microdissection (LCM) in order to specifically isolate the cells. LCM was used to further ensure that cells of the subcapsular plaques were obtained and not left adherent to the underlying fiber cell mass, which may have occurred with manual dissection. Following treatment, lenses were placed in a cryostat mould containing Tissue-Tek OCT (Sakura Finetek Torrance, Calif.), and frozen on dry ice then stored at −70° C. The frozen tissue was then sectioned at 5-8 μm in a cryostat, mounted on non-coated clean glass slides, and stored again at −70° C. Immediately before Laser Capture Microdissection (LCM), the frozen sections were thawed for 10 seconds and then stained with HistoGene™LCM Frozen Section Staining kit (Arcturus, Mountain View, Calif.) using the protocol provided with strict adherence to RNAse-free conditions. The slides were then dried for 5 minutes after which LCM of the tissue was completed within two hours. LCM was then performed using the PixCell II (Arcturus), as described by others. The HistoGene stain allowed for the identification of the general morphology of the epithelium. Cells from the epithelium of the lens were then captured on CapSure Macro LCM Caps (Arcturus) using the PixCell II LCM Microscope (Arcturus) with a minimal beam diameter of 7.5 μrm. Total cellular RNA was then extracted from lifted cells using a PicoPure™ RNA Isolation kit (Arcturus Engineering Inc). Purified RNA was analyzed both qualitatively and quantitatively using an Agilent 2100 Bioanalyser (Agilent Technologies, Foster City, Calif., USA). Standard 20 μl reverse transcription reactions were preformed (SuperScript II, Life Technologies). The quality of the recovered cDNA was measured using a microfluidic gel analyzer (Agilent Technologies). E-Cadherin gene expression from recovered cDNA was analyzed using RT-PCR using a 96 well TaqMan optical reaction plate format on an ABI Prism 7700 sequence detection system (Applied Biosystems, Foster City, Calif., USA). RNA was normalized to 18S for each reaction. Each 25 μl PCR reaction (including controls) contained TaqMan Universal master mix, gene-specific forward and reverse primers (Mobix, Hamilton), and probes for target and endogenous control genes (Applied Biosystems). Serial dilutions (1-5 fold) of standard samples were set up in separate wells in duplicate, for both 18S and E-cadherin gene targets. Standard and unknown samples were added in a volume of 5 μl. Thermal cycling parameters consisted of the following: 2 minutes at 50° C., 10 minutes at 95° C. followed by 40 cycles of 15 seconds at 95° C. and 1 minute at 60° C. The number of target gene copies was calculated from a standard curve generated in parallel with each batch of samples. A linear relationship was detected over at least five orders of magnitude. In all experiments, the correlation coefficient was between 0.997 and 0.986. […] All PCR for E-cadherin cDNA quantification were performed using standard cDNA dilution curves. Quantitative data were analyzed statistically using a student's t-test and expressed as ±standard deviation. […]

[4] = system: TGFβ-induced rat lens cataract; test: Optical analysis (BVD error) in ex-vivo TGFβ-induced rat lens cataract model
[5] = TGFβ 2 ng/ml plus 25 μM test substance, 6 days

Row | Molecule | Levels of gelatinolytic bands in conditioned media, FIG. 5A [3] | MMP-2 protein in conditioned media (western blot), FIG. 5B (MMP-2) | MMP-9 protein in conditioned media (western blot, densitometry), FIG. 5B,C (MMP-9) | E-cadherin fragment in conditioned media, FIG. 6A (E-cadherin fragment) | E-cadherin mRNA level in lens epithelium versus TGFβ alone, FIG. 6B (E-cadherin mRNA) | E-cadherin mRNA level in lens epithelium versus controls, FIG. 6B (E-cadherin mRNA) | BVD error versus control lenses, FIG. 3 [4, 5] | further results
1 | CNC(=O)[C@H](Cc1c[nH]c2ccccc12)NC(=O)[C@@H](CC(=O)NO)CC(C)C [GM6001] | reduced levels of all gelationolytic bands | undetectable levels, similar to controls | significant reduction (**P<0.001); also recorded: significantly attenuated | Suppression in the levels of the E-adherin fragment | significantly higher than those treated with TGFβ alone | significantly higher than that of controls | not significantly different from the control lenses | Subcapsular plaques / opacities, FIG. 4 ([1]; co-cultured with TGFβ 2 ng/mL, 25 μM): remained devoid of opacities; αSMA immunoreactivity in lens sections, FIG. 4 ([2]; 25 μM): no observable immunoreactivity to αSMA; BVD error versus control lenses, FIG. 3 ([4]; TGFβ 2 ng/ml plus 10 μM test substance, 6 days): significantly different from control lenses; BVD error versus control lenses, FIG. 3 ([4]; TGFβ 2 ng/ml plus 15 μM test substance, 6 days): significantly different from control lenses; BVD error versus control lenses, FIG. 3 ([4]; TGFβ 2 ng/ml plus 20 μM test substance, 6 days): not significantly different from the control lenses; Dosage effect on TGFβ-induced BVD error ([4]; TGFβ 2 ng/ml plus 10, 15, 20, 25 μM, 6 days): decrease in BVD error as the GM6001 concentration increases to 25 μM; BVD error (back vertex variability), FIG. 2 ([4]; day 6, lenses co-treated with TGF-β and GM6001, compared with TGF-β treated groups): both the TGF-β treated groups of lenses exhibited a significantly larger BVD error than the control group or the GM6001 co-treated lenses
2 | O=C(NO)[C@@H](Cc1ccccc1)NS(=O)(=O)c1ccc(-c2ccccc2)cc1 [MMPI-2/9, (2R)-[(4-Biphenylylsulfonyl)amino]-N-hydroxyl-3-phenylpropionamide] | reduced levels of all gelationolytic bands | undetectable levels, similar to controls | significant attenuation of MMP-9 | undetectable | significantly higher than those treated with TGFβ alone | significantly higher than that of controls | – | Subcapsular plaques / opacities, FIG. 4 ([1]; co-cultured with TGF-β): remained devoid of opacities; αSMA immunoreactivity in lens sections, FIG. 4 ([2]; inhibitor): no observable immunoreactivity to αSMA
3 | CNC(=O)[C@H](Cc1c[nH]c2ccccc12)NC(=O)[C@H](CC(C)C)NC(=O)OC(C)(C)C [negative control for GM6001, N-t-Butoxycarbonyl-L-leucyl-L-tryptophan Methylamide] | – | – | – | – | – | – | significantly different from the controls | –
4 | B1 | – | – | – | – | – | – | – | MMP-9 in conditioned media versus control, FIG. 5C (MMP-9; TGFβ 2 ng/ml alone): significant upregulation (*P<0.001); Suppression of E-cadherin mRNA in plaque tissue versus normal lens epithelium (E-cadherin mRNA; TGFβ alone): ~4 fold; BVD error versus controls ([4]; TGFβ alone, 6 days): statistically greater than in controls
